Measurements taken from patent US20250281449A1, “NITROGEN-CONTAINING ANALOGS OF SALINOMYCIN FOR USE IN MULTIPLE MYELOMA (MM)” (Centre National de la Recherche Scientifique, priority 2021, published 2025).

Assays:
Assay type in all cases: cell-based, human
[1] = test system: MMSET (isoforms I and II); assay: Western blot of MMSET protein level; settings: MM cell lines with t(4; 14) translocation, 24H
Experimental: Cells were treated with iron chelators (80 μM Deferasirox), and Ironomycin (IC50 and 200 nM) during 24H. Protein levels of MMSET (isoforms I and II), MYC, H3K36me3 and H3K27me3 were analyzed by western blot. MMSET (isoforms I and II) and MYC signal were normalized by α-tubulin protein level, H3K36me3 and H3K27me3 signal were normalized by total histone 3 protein level.
The total cell lysates were obtained with RIPA 1× lysis buffer (#9806, Cell Signaling®) according with the supplier recommendations.
Protein lysates migrate on 10% polyacrylamide gel (NP-0301, Novex, Life Technologies®), in MOPS 1× running buffer (NP0001, Novex, Life Technologies®) or MES 1× running buffer NP-0002, Novex, Life Technologies®) and proteins are transferred to nitrocellulose membrane (1B301001, I-Blot Transfert Starck, NuPAGE, Life Technologies®). The primary antibodies mouse-anti-phospho-Histone H2A.X (Ser139) clone JBW301 ( 1/1000, Merck Millipore), anti-H3K36me3 (#ab9050, abcam®), anti-H3K27me3 (#9733, Cell Signaling®), anti-MMSET (#65127, Cell Signaling® et ab75359, abcam), anti-MYC (#5605, Cell Signaling®) were incubated in TBS-Tween 20 0.1% (Tris-Buffered Saline, pH 7.4) with 5% non-fat milk or Bovine serum albumin (Sigma-Aldrich, A7906). […] Quantification of protein levels was performed with Image J® software (National Institutes of Health, Bethesda, MD, USA).

non-MM cells = assay: Assay on primary samples of patients, non-MM cells (flow cytometry)
Experimental: Primary MM cells were treated with Ironomycin (A) or AM-23 (B) and incubated during 96H with IL-6. The toxicity on MM cells and non-MM cells was analyzed by flow cytometry and expressed in % of control.
Bone marrow samples were collected after patients' written informed consent in accordance with the Declaration of Helsinki and institutional research board approval from Montpellier University hospital. Cells are obtained from […] of 5 patients with MM. Cells are obtained by density gradient separation and qualified by Flow cytometry.
Cells are cultured in Gibco® RPMI-1640 (Glutamax) medium (#6187-010) with 10% FBS at a density of 0.5×10^6 Cell/mL with 2 ng/mL of interleukin-6. Cells are seeded 24H after thawing and treated with various compounds during 72H.
Total cells were counted with trypan blue and stained with the panel CD38-APC, CD138-PE (Beckman coulter) and analyzed by flow cytometry (Fortessa cytometer, BD Pharmigen). Tumorous MM cells were gated on CD38+ and CD138+.

[2] = test system: CD34+ cells (normal hematopoietic progenitors)
Experimental: Hematopoietic progenitor colony-forming units assay were performed with CD34+ cells from apheresis of 5 donors. Cells were cultured in hydroxyl-methyl-cellulose medium with or without conventional chemotherapy or Ironomycin (A) or AM-23 (B). CFU-C, CFU-E/BFU-E and CFU-GM, -G, -M were counted after 14 days culture. N=5.

[3] = test system: XG2 melphalan resistant (XG2 Melph R) cell line; assay: Drug combination concentration matrix, viability by ATP quantification, Bliss synergy; settings: melphalan resistant cell line XG2 MeIR, 96 h
Experimental: XG-7 or XG2 WT (XG2 neg) or XG2 melphalan resistant (XG2 Melph R) cell lines were respectively treated with increasing concentrations of ironomycin combined with melphalan during 96 h and cell viability was tested by ATP quantification to obtain the viability matrix. The synergy matrix was calculated as described in Material and Methods.
HMCL cell lines were cultured for 4 days in 96-well flat-bottom microtiter plates in RPMI 1640 medium or DMEM medium, 10% or 20% FCS (control medium) in the presence of various compounds. The number of viable cells in culture was determined using the Cell Titer-Glo Luminescent Cell Viability Assay from Promega, Madison, WI, USA using a Centro LB 960 luminometer (Berthold Technologies, Bad Wildbad, Germany).
The interaction between the drugs tested in vitro was investigated with a concentration matrix test, in which increasing concentration of each single drug were assessed with all possible combinations of the other drugs. For each combination, the percentage of expected growing cells in the case of effect independence was calculated according to the Bliss equation (Combes et al., 2019): […]
where fuC is the expected fraction of cells unaffected by the drug combination in the case of effect independence, and fuA and fuB are the fractions of cells unaffected by treatment A and B, respectively. […]

Structure (SMILES): C#CCN[C@@H]1C=C[C@]2(O[C@H]([C@@H](CC)C(=O)[C@@H](C)[C@@H](O)[C@H](C)[C@@H]3O[C@@H]([C@@H](CC)C(=O)O)CC[C@@H]3C)[C@@H](C)C[C@H]2C)O[C@@]12CC[C@@](C)([C@H]1CC[C@](O)(CC)[C@H](C)O1)O2 [Ironomycin]
- expression of MMSET [1]: downregulates the expression of MMSET
- toxicity for non-tumoral cells (non-MM cells): without significant toxicity
- toxicity on normal hematopoietic progenitors [2]: low toxicity
- interaction effect, combined with melphalan [3]: remains synergistic
